Consider 1 compound from patent publication US6680344B1, “Method of treating hair loss using diphenylmethane derivatives” (The University of Texas Southwestern Medical Center, priority 1999, dated 2004).

The subject of the data set is heart/body weight ratio of male Sprague Dawley rats. In words: Cardiotoxicity assay (heart-to-body weight ratio). As to conditions: 250 μg/kg subcutaneously once daily for 28 days, cardiac-sparing where C is less than 1.3. The class given is in vivo, rat. The source says: The cardiotoxicity assay measures the potential of a test compound to adversely affect the cardiovascular system. As thyroid hormone (T3) damages the cardiovascular system, the heart enlarges. See, e.g., Gomberg-Maitland et al., “Thyroid hormone and Cardiovascular Disease”, American Heart Journal, Vol. 135(2), pp. 187-196 (1998); Klein and Ojamaa, “Thyroid Hormone and the Cardiovascular System”, Current Opinion in Endocrinology and Diabetes, Vol. 4, pp.341-346 (1997); and Klemperer et al., “Thyroid Hormone Therapy and Cardiovascular Disease”, Progress in Cardiovascular Diseases, Vol. 37 (4), pp. 329-336 (1996). This increases the weight of the heart relative to whole body weight. The cardiotoxicity assay herein below is used to test compounds for potentially adverse cardiac effects by measuring their effect on the heart-to-body weight ratio.
Two groups each of six male Sprague Dawley rats (Harlan Sprague Dawley, Inc., Indianapolis, Ind.) (each weighing from approximately 220 grams to 235 grams) are utilized. The first group is a vehicle control group and the second group is a test compound group. The length of the assay is 30 days, with treatment of vehicle or test compound in vehicle daily for 28 of those days as described below.
Prior to initiation of the assay, each rat is allowed to acclimate to standard environmental conditions for 5 days. […]

For `N[C@@H](Cc1cc(I)c(Oc2cc(I)c(O)c(I)c2)c(I)c1)C(=O)O` [T4, thyroxine], the “cardiac-sparing classification (index C = RT/RV, heart/body ratio of test compound group over vehicle control group)” value is recorded as “not cardiac-sparing”.
